Reference: patent publication US5721240A, “9-substituted-8-unsubstituted-9-deazaguanines” (BioCryst Pharmaceuticals, Inc., priority 1996, dated 1998)
Like-named read-outs stand apart in the source and are kept apart here.

How the values were obtained:
CCRF-CEM Cells = experiment: 2'-deoxyguanosine potentiation assay (cell growth inhibition of CCRF-CEM cells with d-Guo); assay type: cell-based; conditions: Homo sapiens, + 2'-d-Guanosine 5.62 uM, 72 hours
Method: The potentiation of the cell growth inhibitory activity (cytotoxicity) of 2'-deoxyguanosine (d-Guo) by the compounds of the invention is determined as follows: CCRF-CEM cells are grown in RPMI-1640 medium. To suspension cultures of these cells, d-Guo at a fixed concentration (5.62 μM) and the candidate PNP inhibitor at varied concentrations are added and the number of cells are determined in a Coulter counter 24, 48, and 72 hours thereafter. […] This method is similar to that previously used to determine the effectiveness of PNP inhibitors on potentiation of the toxicity of d-Guo [D. A. Shewach et al., Cancer Res., 46, 519 (1986); J. C. Sircar et al., Agents and Actions, 21, 253 (1987)].

PNP (Calf spleen) = target: T1, PNP (Calf spleen) (Bos taurus, UniProt P55859); experiment: in vitro PNP inhibition assay (radiochemical, [14C]-hypoxanthine formation from [14C]-inosine); assay type: biochemical
T1 construct: using calf spleen as the enzyme source; from tissue; host or cells: calf spleen
T1 sequence (P55859 1-289): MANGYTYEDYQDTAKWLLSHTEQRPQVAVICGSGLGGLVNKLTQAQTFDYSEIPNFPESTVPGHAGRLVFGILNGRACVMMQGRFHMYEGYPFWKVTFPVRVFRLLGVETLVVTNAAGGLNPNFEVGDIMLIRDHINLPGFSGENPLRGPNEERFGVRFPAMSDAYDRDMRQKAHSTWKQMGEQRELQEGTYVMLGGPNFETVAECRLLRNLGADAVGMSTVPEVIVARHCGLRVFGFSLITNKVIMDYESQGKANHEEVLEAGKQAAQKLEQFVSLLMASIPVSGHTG

plasma inosine = experiment: Effects on blood plasma levels of inosine in rats; assay type: in vivo, Lewis rats; conditions: i.p.; for Inosine Concentration: rat, 4 mg/kg
Method: An effective method of evaluating in vivo effects of PNP inhibitors is to evaluate the level of plasma nucleosides following the administration of inhibitor. In particular, it has been shown that certain PNP inhibitors, which increase blood plasma levels of inosine, were subsequently found to prolong skin allograf survival.
Control groups are used which receive only the vehicle. At specific times after administration, the animals are sacrificed and plasma samples are prepared. The plasma is extracted with cold 0.5 N HClO4 and neutralized with solid NH4 HCO3. After removal of perchlorate salts, the extract is subjected to HPLC on a reversed phase column (Spherisorb ODSI).

[1] = 8-unsubstituted compounds, calf spleen enzyme, 50 mM phosphate, read-out: PNP (Calf spleen) IC50
[2] = read-out: PNP (Calf spleen) IC50
[3] = 8-amino-substituted comparison compounds

Molecule `Nc1nc2c(Cc3cccc(Cl)c3)c[nH]c2c(=O)[nH]1` [Example 1, 2-amino-3,5-dihydro-7-(3-chlorophenylmethyl)-4H-pyrrolo[3,2d-]pyrimidin-4-one] has an IC50 (CCRF-CEM Cells; 8-unsubstituted compounds) of 800 nM and an IC50 (PNP (Calf spleen)) of 140 nM.
In the case of `Nc1nc2c(Cc3ccccc3)c[nH]c2c(=O)[nH]1` [Example 2c, 2-Amino-3,5-dihydro-7-(phenylmethyl)-4H-pyrrolo-[3,2-d]pyrimidin-4-one], the IC50 (CCRF-CEM Cells; 8-unsubstituted compounds) is reported as 600 nM, the “increase in plasma inosine” value (plasma inosine; Lewis rats, summary in words) is reported as “significant increase in plasma inosine” and the “Inosine Concentration” value (plasma inosine; 0.50 hrs, Exp 1) is reported as 3 μMO. For the same molecule, the “Inosine Concentration” value (plasma inosine; 0.50 hrs, Exp 3) was 10 μMO, the “Inosine Concentration” value (plasma inosine; 1.0 hrs, Exp 1) was 7 μMO and the “Inosine Concentration” value (plasma inosine; 1.0 hrs, Exp 3) was 7 μMO. The “Inosine Concentration” value (plasma inosine; 1.5 hrs, Exp 3) was 6 μMO, the “Inosine Concentration” value (plasma inosine; 1.5 hrs, Exp 7, listed as SRI 7109, 4 mg/kg) was 6 μMO and the “Inosine Concentration” value (plasma inosine; 2.0 hrs, Exp 3) was 4 μMO. For the same molecule, the “Inosine Concentration” value (plasma inosine; 3.0 hrs, Exp 1) was 4 μMO, the “Inosine Concentration” value (plasma inosine; 3.0 hrs, Exp 3) was 6 μMO and the “Inosine Concentration” value (plasma inosine; 3.0 hrs, Exp 7, listed as SRI 7109, 4 mg/kg) was 6 μMO. The “Inosine Concentration” value (plasma inosine; 4.0 hrs, Exp 2) was 3 μMO, the “Inosine Concentration” value (plasma inosine; 5.0 hrs, Exp 2) was 2 μMO and the “Inosine Concentration” value (plasma inosine; 6.0 hrs, Exp 2) was 0.5 μMO. For the same molecule, the “Inosine Concentration” value (plasma inosine; 8.0 hrs, Exp 2) was 0.6 μMO, the “Inosine Concentration” value (plasma inosine; 10.0 hrs, Exp 2) was 0.3 μMO and the “Inosine Concentration” value (plasma inosine; 24 hrs, Exp 1) was 0.3 μMO.
`Nc1nc2c(Cc3ccc(Cl)cc3)c[nH]c2c(=O)[nH]1` [Example 2d, 2-Amino-3,5-dihydro-7-(4-chlorophenylmethyl)-4H-pyrrolo[3,2-d]pyrimidin-4-one] gave an IC50 (CCRF-CEM Cells; 8-unsubstituted compounds) of 700 nM.
Molecule `Nc1nc2c(Cc3cccc(C(F)(F)F)c3)c[nH]c2c(=O)[nH]1` [Example 2h, 2-Amino-3,5-dihydro-7-(3-trifluoromethylphenylmethyl)-4H-pyrrolo[3,2-d]pyrimidin-4-one] has an IC50 (PNP (Calf spleen); [1]) of 250 nM.
`Nc1nc2c(Cc3ccc(Cl)c(Cl)c3)c[nH]c2c(=O)[nH]1` [Example 2i, 2-Amino-3,5-dihydro-7-(3,4-dichlorophenylmethyl)-4H-pyrrolo[3,2-d]pyrimidin-4-one] was tested, and the IC50 (PNP (Calf spleen); [1]) was 1000 nM.
Molecule `Nc1nc2c(Cc3ccco3)c[nH]c2c(=O)[nH]1` [Example 2j, 2-Amino-3,5-dihydro-7-(2-furanylmethyl)-4H-pyrrolo-[3,2-d]pyrimidin-4-one] has an IC50 (CCRF-CEM Cells; 8-unsubstituted compounds) of 2300 nM and an IC50 (PNP (Calf spleen); [2]) of 310 nM.
Work on `Nc1nc2c(Cc3cccs3)c[nH]c2c(=O)[nH]1` [Example 2k, 2-Amino-3,5-dihydro-7-(2-thienylmethyl)-4H-pyrrolo-[3,2-d]pyrimidin-4-one] yielded an IC50 (CCRF-CEM Cells; 8-unsubstituted compounds) of 300 nM.
`Nc1nc2c(Cc3ccsc3)c[nH]c2c(=O)[nH]1` [Example 2l, 2-Amino-3,5-dihydro-7-(3-thienylmethyl)-4H-pyrrolo-[3,2-d]pyrimidin-4-one] showed an IC50 (CCRF-CEM Cells; 8-unsubstituted compounds) of 2000 nM and an IC50 (PNP (Calf spleen); [2]) of 80 nM.
With `Nc1nc(O)c2[nH]cc(Cc3ccccc3Cl)c2n1` [Example 2m, 2-Amino-3,5-dihydro-7-(2-chlorophenylmethyl)-4H-pyrrolo[3,2-d]pyrimidin-4-one] the IC50 (PNP (Calf spleen); [1]) was 2300 nM.
For `Nc1nc2c(Cc3ccsc3)c(N)[nH]c2c(=O)[nH]1` [Example 3-Thienyl, reference compound], the IC50 (CCRF-CEM Cells; [3]) was over 20000 nM.
In the case of `Nc1nc2c(Cc3cccc(O)c3)c[nH]c2c(=O)[nH]1` [Example 3b, 2-amino-3,5-dihydro-7-(3-hydroxyphenylmethyl)-4H-pyrrolo[3,2-d]pyrimidin-4-one], the IC50 (CCRF-CEM Cells; 8-unsubstituted compounds) is reported as 1700 nM.
Molecule `Nc1nc2c(Cc3ccccc3O)c[nH]c2c(=O)[nH]1` [Example 3c, 2-amino-3,5-dihydro-7-(2-hydroxyphenylmethyl)-4H-pyrrolo[3,2-d]pyrimidin-4-one] has an IC50 (PNP (Calf spleen); [1]) of 1950 nM.
`Nc1nc2c(Cc3ccccc3)c(N)[nH]c2c(=O)[nH]1` [Phenyl, reference compound] gave an IC50 (CCRF-CEM Cells; [3]) of over 15000 nM and an IC50 (PNP (Calf spleen)) of 7700 nM.
